According to patent US9365576B2, “Pyrrolopyrrolidinone compounds” (Novartis AG, priority 2012, dated 2016):
pIC50: −log10 of the molar value.

Target: human MDM2 protein (amino acids 2-188) (Homo sapiens (Human), UniProt Q00987)
Assay: TR-FRET assay, p53-MDM2 Assay 2 (modified)
Format: binding
Details: TR-FRET; 0.1 nM MDM2, 0.1 nM Europium labeled streptavidin, Tecan genios Pro reader; read-out: IC50 p53-MDM2 Assay 2
Method: The inhibition of p53-MDM2 and p53-MDM4 interactions is measured by time resolved fluorescence energy transfer (TR-FRET). Fluorescence energy transfer (or Foerster resonance energy transfer) describes an energy transfer between donor and acceptor fluorescent molecules. For this assay, human MDM2 protein (amino acids 2-188) and human MDM4 protein (amino acids 2-185), tagged with a C-terminal biotin moiety, are used in combination with a Europium labeled streptavidin (Perkin Elmer, Inc., Waltham, Mass., USA) serving as the donor fluorophore. The p53 derived, Cy5 labeled peptide Cy5-[…] (p53 aa18-26) is the energy acceptor. Upon excitation of the donor molecule at 340 nm, binding interaction between MDM2 or MDM4 and the p53 peptide induces energy transfer and enhanced response at the acceptor emission wavelength at 665 nm. […] The ratiometric FRET assay readout is calculated from the raw data of the two distinct fluorescence signals measured in time resolved mode (fluorescence 665 nm/fluorescence 620 nm×1000).
After addition of 1.25 nM MDM2-biotinylated or 2.5 nM MDM4-biotinylated (internal preparations), and 0.625 nM Europium labeled streptavidin (Perkin Elmer), the solution is pre-incubated for 15 minutes at room temperature, then 10 nM Cy5-p53 peptide (internal preparation) is added before an incubation at room temperature for 15 minutes prior to reading the plate. For measurement of samples, a Victor II microplate reader (Perkin Elmer) is used with the following settings: Excitation 340 nm, Emission Donor 620 nm and Emission Acceptor 665 nm. IC50 values are calculated by curve fitting using XLfit. If not specified, reagents are purchased from Sigma-Aldrich Chemie GmBH, Buchs, Switzerland.

Sequence of human MDM2 protein (amino acids 2-188) (Q00987 2-188): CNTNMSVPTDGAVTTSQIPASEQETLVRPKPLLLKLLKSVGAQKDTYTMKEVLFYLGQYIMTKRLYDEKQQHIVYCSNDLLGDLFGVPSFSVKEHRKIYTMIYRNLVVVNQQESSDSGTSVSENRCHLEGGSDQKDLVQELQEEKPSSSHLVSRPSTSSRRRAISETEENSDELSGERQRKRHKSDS

Compound	pIC50
COc1nc(N(C)C)ncc1-c1cc2c(n1C(C)C)C(c1ccc(Cl)cc1)N(c1ccc(F)c(Cl)c1)C2=O (stereo not shown) [Example 58, 5-(3-Chloro-4-fluoro-phenyl)-6-(4-chloro-phenyl)-2-(2-dimethylamino-4-methoxy-pyrimidin-5-yl)-1-isopropyl-5,6-dihydro-1H-pyrrolo[3,4-b]pyrrol-4-one]	9.34
COc1ccc(C#N)cc1-c1cc2c(n1C(C)C)C(c1ccc(Cl)cc1)N(C1CCOCC1)C2=O (stereo not shown) [Example 77, 3-[6-(4-Chloro-phenyl)-1-isopropyl-4-oxo-5-(tetrahydro-pyran-4-yl)-1,4,5,6-tetrahydro-pyrrolo[3,4-b]pyrrol-2-yl]-4-methoxy-benzonitrile]	8.82
COc1ccc(S(C)(=O)=O)cc1-c1cc2c(n1C(C)C)C(c1ccc(Cl)cc1)N(c1cc(Cl)ccc1C)C2=O (stereo not shown) [Example 114, 5-(5-Chloro-2-methyl-phenyl)-6-(4-chloro-phenyl)-1-isopropyl-2-(5-methanesulfonyl-2-methoxy-phenyl)-5,6-dihydro-1H-pyrrolo[3,4-b]pyrrol-4-one]	9.74
COc1ccc(C(=O)N(C)C)cc1-c1cc2c(n1C(C)C)C(c1ccc(Cl)cc1)N(c1cc(Cl)ccc1C)C2=O (stereo not shown) [Example 15, 3-[5-(5-Chloro-2-methyl-phenyl)-6-(4-chloro-phenyl)-1-isopropyl-4-oxo-1,4,5,6-tetrahydro-pyrrolo[3,4-b]pyrrol-2-yl]-4-methoxy-N,N-dimethyl-benzamide]	9.88
COc1nc(N(C)C)ncc1-c1cc2c(n1C(C)C)C(c1ccc(C#N)cc1)N(c1cc(Cl)ccc1C)C2=O (stereo not shown) [Example 95, 4-[5-(5-Chloro-2-methyl-phenyl)-2-(2-dimethylamino-4-methoxy-pyrimidin-5-yl)-1-isopropyl-4-oxo-1,4,5,6-tetrahydro-pyrrolo[3,4-b]pyrrol-6-yl]-benzonitrile]	9.71
COc1ncc(-c2cc3c(n2C(C)C)C(c2ccc(Cl)cc2)N(c2ccc(F)c(Cl)c2)C3=O)c(OC)n1 (stereo not shown) [Example 54, 5-(3-Chloro-4-fluoro-phenyl)-6-(4-chloro-phenyl)-2-(2,4-dimethoxy-pyrimidin-5-yl)-1-isopropyl-5,6-dihydro-1H-pyrrolo[3,4-b]pyrrol-4-one]	9.57
COc1ccncc1-c1cc2c(n1C(C)C)C(c1ccc(Cl)cc1C)N(c1cccc(Cl)c1F)C2=O (stereo not shown) [Example 6, 5-(3-Chloro-2-fluoro-phenyl)-6-(4-chloro-2-methyl-phenyl)-1-isopropyl-2-(4-methoxy-Pyridin-3-yl)-5,6-dihydro-1H-pyrrolo[3,4-b]pyrrol-4-one]	9.76

The remaining lines, values ahead:

pIC50	Compound
7.31	COc1nc(N(C)C)ncc1-c1cc2c(n1C(C)C)[C@@H](c1ccc(Cl)c(F)c1)N(c1cc(Cl)c[nH]c1=O)C2=O [Example 228, (R)-6-(4-Chloro-3-fluoro-phenyl)-5-(5-chloro-2-oxo-1,2-dihydro-pyridin-3-yl)-2-(2-dimethylamino-4-methoxy-pyrimidin-5-yl)-1-isopropyl-5,6-dihydro-1H-pyrrolo[3,4-b]pyrrol-4-one]
9.44	COc1nc(N(C)C)ncc1-c1cc2c(n1C(C)C)C(c1ccc(C#N)cc1)N(c1cc(Cl)c[nH]c1=O)C2=O (stereo not shown) [Example 127, 4-[5-(5-Chloro-2-oxo-1,2-dihydro-pyridin-3-yl)-2-(2-dimethylamino-4-methoxy-pyrimidin-5-yl)-1-isopropyl-4-oxo-1,4,5,6-tetrahydro-pyrrolo[3,4-b]pyrrol-6-yl]-benzonitrile]
9.64	COc1nc(N(C)C)ncc1-c1cc2c(n1C(C)C)C(c1ccc(Cl)cc1)N(c1c[nH]c(=O)c(Cl)c1)C2=O (stereo not shown) [Example 140, 5-(5-Chloro-6-oxo-1,6-dihydro-pyridin-3-yl)-6-(4-chloro-phenyl)-2-(2-dimethylamino-4-methoxy-pyrimidin-5-yl)-1-isopropyl-1-5,6-dihydro-1H-pyrrolo[3,4-b]pyrrol-4-one]
